Reference: US20240059688A1, “CONOLIDINE ANALOGUES AS SELECTIVE ACKR3 MODULATORS FOR THE TREATMENT OF CANCER” (Luxembourg Institute of Health (LIH), priority 2020, published 2024)

Assays:
Assay type in all cases: cell-based
NOP = molecular target: T1, NOP (Homo sapiens, UniProt P41146); assay: NanoBiT-based β-arrestin-2 recruitment assay, NOP; conditions: concentration range 0.15 nM to 80 μM; reference Nociceptin
T1 construct: expressed in transfected cells; host or cells: U87
Description: (§1) The ability of the different molecules to activate the four opioid receptors MOR, DOR, KOR and NOP that are known to mediate in vivo analgesic effects was tested using the NanoBiT-based β-arrestin-2 recruitment assay in a concentration range of 0.15 nM to 80 μM. For each of these receptors a reference ligand corresponding to an endogenous opioid peptide i.e. Met-enkephalin, BAM22, Dynorphin A and Nociceptin, respectively was included.
(§2) Ligand-induced β-arrestin recruitment to chemokine and opioid receptors was monitored by NanoLuc complementation assay (NanoBiT, Promega). In brief, 1.2×10^6 U87 cells were plated in 10-cm culture dishes and 48 hours later co-transfected with pNBe vectors encoding GPCRs (ACKR3, MOR, DOR, KOR, or NOP) C-terminally tagged with SmBiT and human β-arrestin-1 (arrestin-2) or β-arrestin-2 (arrestin-3) N-terminally fused to LgBiT. 48 hours post-transfection cells were harvested, incubated 25 minutes at 37° C. with Nano-Glo Live Cell substrate diluted 200-fold and distributed into white 96-well plates (5×10^4 cells per well). Ligand-induced, β-arrestin to GPCRs was evaluated with a Mithras LB940 luminometer (Berthold Technologies, running on MicroWin 2010 5.19 software (Mikrotek Laborsysteme)) for 20 minutes.
(§3) For concentration-response curves (FIG. 2), the signal recorded with a saturating concentration of full agonist for each receptor was set as 100%. […]

CCR3 = molecular target: T2, CCR3 (Homo sapiens, UniProt P51677); assay: NanoBiT β-arrestin-1 recruitment, receptor selectivity panel, CCR3; conditions: higher concentrations (3 μM, 10 μM); FIG. 3 sections B and C
T2 construct: expressed in transfected cells; host or cells: U87
T2 sequence (P51677 1-355): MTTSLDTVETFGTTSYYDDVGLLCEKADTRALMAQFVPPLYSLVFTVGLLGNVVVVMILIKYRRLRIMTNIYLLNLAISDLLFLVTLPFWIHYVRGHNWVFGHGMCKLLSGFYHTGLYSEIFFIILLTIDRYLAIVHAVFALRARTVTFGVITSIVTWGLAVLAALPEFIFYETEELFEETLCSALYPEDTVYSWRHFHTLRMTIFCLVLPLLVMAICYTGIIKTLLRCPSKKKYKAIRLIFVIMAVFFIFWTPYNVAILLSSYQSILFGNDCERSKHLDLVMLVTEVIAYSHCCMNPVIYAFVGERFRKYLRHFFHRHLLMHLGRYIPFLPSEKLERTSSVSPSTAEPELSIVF
Description: To further assess the selectivity profile of the compounds of the invention towards ACKR3, the ability to activate the 21 classical and 4 atypical chemokines receptors and related receptors was tested using the NanoBiT assay based β-arrestin-1 recruitment described previously. The 4 classical opioid receptors described above were also included in the experimental setup. The compounds WW-1 (conolidine) and WW-12 were tested at three different concentrations, 1 μM, 3 μM and 10 μM.
This possible off-target effect was further characterized by comparing the ability of the two molecules to activate receptors ACKR4, CX3CR1 and CCR3 with reference ligands for the receptors, namely CCL19, CX3CL1 and CCL13.
Ligand-induced β-arrestin recruitment to chemokine and opioid receptors was monitored by NanoLuc complementation assay (NanoBiT, Promega). […] Ligand-induced, β-arrestin to GPCRs was evaluated with a Mithras LB940 luminometer (Berthold Technologies, running on MicroWin 2010 5.19 software (Mikrotek Laborsysteme)) for 20 minutes.
For single dose screening experiments on all chemokine receptors(FIG. 3), the results are represented as percentage of signal monitored with 100 nM of one known agonist chemokine listed in the IUPHAR repository of chemokine receptor ligands which was added as positive control.

ACKR3 = ACKR3 (Homo sapiens, UniProt P25106); assay: GPCR β-arrestin screening (PathHunter gpcrMAX/orphanMAX), ACKR3; conditions: conolidine 10 μM; over 240 receptors tested
Description: (§4) In an effort to identify the target of conolidine among the GPCR family, we undertook a large scale screening program using a β-arrestin recruitment assay based on β-galactosidase complementation (PathHunter, DiscoverX). Over 240 receptors were tested for their ability to be activated or inhibited by conolidine (10 μM) (data not shown). These included 168 GPCRs from the gpcrMAX panel, covering over 60 distinct receptor families such as adrenergic, dopamine, P2Y or serotonin and 74 GPCRs from the orphanMAX panel.

HRH2 = HRH2 (Homo sapiens, UniProt P25021); assay: GPCR β-arrestin screening (PathHunter gpcrMAX/orphanMAX), HRH2; conditions: conolidine 10 μM
Description: as §4

[1] = molecular target: cannabinoid receptor 2 (CNR2) (Homo sapiens, UniProt P34972); assay: GPCR β-arrestin screening (PathHunter gpcrMAX/orphanMAX), CNR2; conditions: conolidine 10 μM
Description: as §4

[2] = molecular target: T3, melatonin receptor 1B (MTNR1B) (Homo sapiens, UniProt P49286); assay: GPCR β-arrestin screening (PathHunter gpcrMAX/orphanMAX), MTNR1B; conditions: conolidine 10 μM
T3 sequence (P49286 1-362): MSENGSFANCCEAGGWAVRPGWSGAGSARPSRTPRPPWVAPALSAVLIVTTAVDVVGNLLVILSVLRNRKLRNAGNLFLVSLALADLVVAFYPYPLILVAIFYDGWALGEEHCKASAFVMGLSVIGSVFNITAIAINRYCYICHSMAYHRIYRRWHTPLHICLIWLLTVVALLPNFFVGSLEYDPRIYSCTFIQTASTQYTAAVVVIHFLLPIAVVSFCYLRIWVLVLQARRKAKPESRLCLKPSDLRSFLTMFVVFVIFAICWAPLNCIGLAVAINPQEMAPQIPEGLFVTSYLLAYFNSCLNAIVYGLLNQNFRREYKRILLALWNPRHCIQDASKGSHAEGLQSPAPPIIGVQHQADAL
Description: as §4

DOR = DOR (Homo sapiens, UniProt P41143); assay: NanoBiT-based β-arrestin-2 recruitment assay, DOR; design: expressed in transfected cells; host or cells: U87; conditions: concentration range 0.15 nM to 80 μM; reference Met-enkephalin
Description: as §1, §2, §3

KOR = KOR (Homo sapiens, UniProt P41145); assay: NanoBiT-based β-arrestin recruitment assay, KOR; design: expressed in transfected cells; host or cells: U87; conditions: concentration range 0.15 nM to 80 μM; reference Dynorphin A
Description: as §1, §2, §3

T1 sequence (P41146 whole entry): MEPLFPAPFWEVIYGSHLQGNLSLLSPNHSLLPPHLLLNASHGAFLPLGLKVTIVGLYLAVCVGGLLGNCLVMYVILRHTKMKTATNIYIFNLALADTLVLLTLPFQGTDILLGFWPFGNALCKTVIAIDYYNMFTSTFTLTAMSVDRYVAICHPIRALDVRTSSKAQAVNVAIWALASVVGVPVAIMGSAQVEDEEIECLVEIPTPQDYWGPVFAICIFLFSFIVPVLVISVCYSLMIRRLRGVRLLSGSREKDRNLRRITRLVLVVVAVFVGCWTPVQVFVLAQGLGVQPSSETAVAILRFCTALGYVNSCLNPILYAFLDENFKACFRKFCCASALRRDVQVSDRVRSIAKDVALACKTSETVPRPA
Chain of KOR (P41145 whole entry): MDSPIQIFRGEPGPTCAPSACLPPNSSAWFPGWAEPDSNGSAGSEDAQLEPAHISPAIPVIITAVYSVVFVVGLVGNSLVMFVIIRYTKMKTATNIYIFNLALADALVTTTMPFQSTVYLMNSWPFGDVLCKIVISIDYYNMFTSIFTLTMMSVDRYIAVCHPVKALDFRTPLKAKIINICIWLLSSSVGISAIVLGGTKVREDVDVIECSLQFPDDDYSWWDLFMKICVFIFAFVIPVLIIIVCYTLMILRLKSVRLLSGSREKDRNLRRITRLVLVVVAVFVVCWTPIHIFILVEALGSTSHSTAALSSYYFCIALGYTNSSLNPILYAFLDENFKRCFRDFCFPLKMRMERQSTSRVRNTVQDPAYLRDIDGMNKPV
Chain of DOR (P41143 whole entry): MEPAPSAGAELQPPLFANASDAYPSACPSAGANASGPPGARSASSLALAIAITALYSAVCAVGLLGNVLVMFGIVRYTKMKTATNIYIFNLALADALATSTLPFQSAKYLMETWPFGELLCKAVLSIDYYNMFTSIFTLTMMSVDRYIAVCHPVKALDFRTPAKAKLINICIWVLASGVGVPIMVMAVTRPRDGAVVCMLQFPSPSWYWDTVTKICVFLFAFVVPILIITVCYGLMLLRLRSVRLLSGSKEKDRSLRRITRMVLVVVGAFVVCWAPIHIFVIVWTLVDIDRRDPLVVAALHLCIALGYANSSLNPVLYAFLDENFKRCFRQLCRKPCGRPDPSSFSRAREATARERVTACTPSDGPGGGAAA
Chain of ACKR3 (P25106 whole entry): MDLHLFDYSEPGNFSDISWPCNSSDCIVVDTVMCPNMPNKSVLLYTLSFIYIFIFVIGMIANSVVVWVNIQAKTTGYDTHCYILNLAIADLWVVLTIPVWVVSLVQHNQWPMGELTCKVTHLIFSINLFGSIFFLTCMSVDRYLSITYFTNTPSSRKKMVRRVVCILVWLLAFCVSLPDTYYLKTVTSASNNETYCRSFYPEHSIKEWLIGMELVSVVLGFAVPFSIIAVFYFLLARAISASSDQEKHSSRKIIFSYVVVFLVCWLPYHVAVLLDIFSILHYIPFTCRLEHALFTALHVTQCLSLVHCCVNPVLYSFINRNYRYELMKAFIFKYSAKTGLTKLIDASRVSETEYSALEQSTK
Chain of cannabinoid receptor 2 (CNR2) (P34972 whole entry): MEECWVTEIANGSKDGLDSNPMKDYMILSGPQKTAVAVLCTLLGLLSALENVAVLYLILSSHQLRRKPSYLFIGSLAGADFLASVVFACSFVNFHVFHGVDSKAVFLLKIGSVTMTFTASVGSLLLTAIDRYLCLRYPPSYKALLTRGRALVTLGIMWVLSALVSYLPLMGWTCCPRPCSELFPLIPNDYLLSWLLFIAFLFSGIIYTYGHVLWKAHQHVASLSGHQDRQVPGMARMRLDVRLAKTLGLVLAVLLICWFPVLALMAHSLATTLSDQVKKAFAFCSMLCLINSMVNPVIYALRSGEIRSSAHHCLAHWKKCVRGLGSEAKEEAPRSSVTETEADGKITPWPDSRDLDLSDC
Chain of HRH2 (P25021 whole entry): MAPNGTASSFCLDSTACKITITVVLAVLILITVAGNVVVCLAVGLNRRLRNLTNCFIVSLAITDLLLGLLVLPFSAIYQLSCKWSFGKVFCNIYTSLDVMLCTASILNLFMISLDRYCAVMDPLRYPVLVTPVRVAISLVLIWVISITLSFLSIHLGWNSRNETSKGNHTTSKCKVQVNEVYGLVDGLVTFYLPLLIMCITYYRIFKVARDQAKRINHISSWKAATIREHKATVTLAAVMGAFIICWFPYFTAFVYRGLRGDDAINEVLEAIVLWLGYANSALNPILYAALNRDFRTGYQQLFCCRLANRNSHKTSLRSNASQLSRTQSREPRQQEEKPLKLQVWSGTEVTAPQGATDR

Structure (SMILES)	activation of NOP (β-arrestin-2 recruitment) (NOP)	activation of CCR3 (β-arrestin-1 recruitment) in receptor panel (CCR3)	response of ACKR3 in GPCR screening (ACKR3)	activity towards HRH2 in GPCR screening (HRH2)	activation of CNR2 in GPCR screening [1]	activation of MTNR1B in GPCR screening [2]	activation of DOR (β-arrestin-2 recruitment) (DOR)	activation of KOR (β-arrestin recruitment) (KOR)
C/C=C1/CN2CC[C@H]1C(=O)c1[nH]c3ccccc3c1C2 [WW-1, (4E,5R)-4-ethylidene-1,4,5,7-tetrahydro-2,5-ethanoazocino[4,3-b]indol-6(3H)-one]	not active	weak activation	most responsive receptor	No activity was detected	only partially activated	only partially activated	not active	not active
C/C=C1/CN(CCCCC)CC[C@H]1C(=O)c1cc2ccccc2[nH]1 [WW-12, [(3E,4R)-3-ethylidene-1-pentylpiperidin-4-yl](1H-indol-2-yl)methanone]	not active	weak activation	–	–	–	–	not active	not active
